Experiment: 3-Month stability data for TTI-101 Batches B, C, D and E stored at 40° C./75% RH
Assay type: physicochemical
Protocol: Exemplary HPLC conditions: diluent was 0.1% trifluoroacetic acid (TFA) in acetonitrile, Mobile Phase A was 0.05% TFA in water, and Mobile Phase B was 0.05% TFA in acetonitrile, column (Agilent, Eclipse XDB-C18, 3.0×100 mm, particle size 1.8 μm), flow (0.425 mL/min), and detector (280 nm diode array).
Batches B, C, and D were prepared according to Method 5, Method 4, and Method 3, respectively, as described in Example 1. Batch E was prepared analogously using according to Method 1 as described in Example 1.
Samples of TTI-101 (Batches B, C, D, and E) were stored at 40° C./75% RH for 3 months. The batches were individually stored in an low density polyethylene (LDPE) bag enclosed with a Nylon cable tie and then transferred to another LDPE bag and enclosed with a Nylon cable tie. The enclosure was put into a high density polyethylene (HDPE) bottle and closed with a polyethylene-lined polypropylene cap. For Batch B only, another sample was enclosed in a screw-top amber glass bottle and closed with a cap. The samples were stored under the above-identified conditions.

For `COc1ccc(S(=O)(=O)Nc2cc(-c3c(O)ccc4ccccc34)c(O)c3ccccc23)cc1` [TTI-101], the “Impurity RRT 0.84, Area %” value (0 M) was “NQ (≥0.02% and <0.05%)”, the “Impurity RRT 0.87, Area %” value (0 M) was “NQ (≥0.02% and <0.05%)” and the “Impurity RRT 1.06 (Cmp 4), Area %” value (0 M) was “NQ (≥0.02% and <0.05%)”. For the same molecule, the “Impurities Total, Area %” value (0 M, listed as Batch C) was 0.4 Area %, the “Impurity RRT 0.99, Area %” value (0 M, listed as Batch C) was 0.06 Area % and the “Impurity RRT 1.16 (Cmp 6), Area %” value (0 M, listed as Batch C) was 0.31 Area %. For the same molecule, the “Impurities Total, Area %” value (0 M, listed as Batch D) was 0.1 Area %, the “Impurity RRT 1.16 (Cmp 6), Area %” value (0 M, listed as Batch D) was 0.10 Area % and the “Impurities Total, Area %” value (0 M, listed as Batch E) was 0.1 Area %. For the same molecule, the “Impurity RRT 1.16 (Cmp 6), Area %” value (0 M, listed as Batch E) was 0.10 Area %, the “Impurities Total, Area %” value (1 M, listed as Batch C) was 0.1 Area % and the “Impurity RRT 0.99, Area %” value (1 M, listed as Batch C) was “NQ (≥0.02% and <0.05%)”. The “Impurity RRT 1.17 (Cmp 6), Area %” value (1 M, listed as Batch C) was 0.12 Area %, the “Impurities Total, Area %” value (1 M, listed as Batch D) was 0.1 Area % and the “Impurity RRT 1.17 (Cmp 6), Area %” value (1 M, listed as Batch D) was 0.09 Area %. For the same molecule, the “Impurities Total, Area %” value (1 M, listed as Batch E) was 0.1 Area %, the “Impurity RRT 0.99, Area %” value (1 M, listed as Batch E) was “NQ (≥0.02% and <0.05%)” and the “Impurity RRT 1.17 (Cmp 6), Area %” value (1 M, listed as Batch E) was 0.09 Area %. The “Impurity RRT 0.99, Area %” value (2 M) was “NQ (≥0.02% and <0.05%)”, the “Impurity RRT 1.06 (Cmp 4), Area %” value (2 M) was “NQ (≥0.02% and <0.05%)” and the “Impurities Total, Area %” value (2 M, listed as Batch C) was 0.1 Area %. For the same molecule, the “Impurity RRT 1.17 (Cmp 6), Area %” value (2 M, listed as Batch C) was 0.13 Area %, the “Impurities Total, Area %” value (2 M, listed as Batch D) was 0.1 Area % and the “Impurity RRT 1.17 (Cmp 6), Area %” value (2 M, listed as Batch D) was 0.09 Area %. The “Impurities Total, Area %” value (2 M, listed as Batch E) was 0.1 Area %, the “Impurity RRT 1.17 (Cmp 6), Area %” value (2 M, listed as Batch E) was 0.09 Area % and the “Impurity RRT 0.95, Area %” value (3 M) was “NQ (≥0.02% and <0.05%)”. The “Impurity RRT 0.98, Area %” value (3 M) was “NQ (≥0.02% and <0.05%)”, the “Impurity RRT 1.06 (Cmp 4), Area %” value (3 M) was “NQ (≥0.02% and <0.05%)” and the “Impurities Total, Area %” value (3 M, listed as Batch C) was 0.3 Area %. For the same molecule, the “Impurity RRT 1.16 (Cmp 6), Area %” value (3 M, listed as Batch C) was 0.31 Area %, the “Impurities Total, Area %” value (3 M, listed as Batch D) was 0.1 Area % and the “Impurity RRT 1.16 (Cmp 6), Area %” value (3 M, listed as Batch D) was 0.11 Area %. For the same molecule, the “Impurities Total, Area %” value (3 M, listed as Batch E) was 0.2 Area %, the “Impurity RRT 1.16 (Cmp 6), Area %” value (3 M, listed as Batch E) was 0.16 Area % and the Purity (%) (T = 0 month (0 M), listed as Batch C) was 99.6%. The Purity (%) (T = 0 month (0 M), listed as Batch D) was 99.9%, the Purity (%) (T = 0 month (0 M), listed as Batch E) was 99.9% and the Purity (%) (T = 1 month (1 M), listed as Batch C) was 99.8%. For the same molecule, the Purity (%) (T = 1 month (1 M), listed as Batch D) was 99.9%, the Purity (%) (T = 1 month (1 M), listed as Batch E) was 99.9% and the Purity (%) (T = 2 months (2 M), listed as Batch C) was 99.8%. For the same molecule, the Purity (%) (T = 2 months (2 M), listed as Batch D) was 99.9%, the Purity (%) (T = 2 months (2 M), listed as Batch E) was 99.9% and the Purity (%) (T = 3 months (3 M), listed as Batch C) was 99.6%. For the same molecule, the Purity (%) (T = 3 months (3 M), listed as Batch D) was 99.9% and the Purity (%) (T = 3 months (3 M), listed as Batch E) was 99.8%.

— patent US20240033234A1, “THERAPEUTIC COMPOUNDS, FORMULATIONS, AND USE THEREOF” (Tvardi Therapeutics, Inc., priority 2022, published 2024)
